Measurements reported in patent US20210393793A1, “AXL-SPECIFIC ANTIBODIES FOR TREATMENT OF NON-SMALL CELL LUNG CANCER” (priority 2018, published 2021).
Entries after “also recorded” stand apart in the source; their conditions may differ.

Experiments:
[1] = tested on: non-small cell lung andenocarcinoma; test: Subject examples: tumor assessments by scan (RECIST 1.1); format: in vivo, human
Experimental: (§1) Response in solid tumor cancers was assessed in accordance with the RECIST criteria version 1.1^18 and for patients with ovarian cancer according to RECIST 1.1 in combination with CA 125 as defined by the Gynecological Cancer Intergroup^2.
Tumor shrinkage (based on CT-scan evaluations) was listed and summarized, per source (radiologist, central read).

[2] = Phase I dose escalation: PK parameters; format: in vivo, human; settings: across doses/schedules
Excerpt: (§2) Secondary Endpoints • Safety laboratory parameters (hematology and biochemistry). • PK parameters (clearance, volume of distribution and area-under-the-concentration-time curve [AUC0-Clast and AUC0-∞], maximum concentration [Cmax], time of Cmax [Tmax], pre dose values, and half-life of HuMax-AXL-ADC and free toxin monomethyl auristatin E [MMAE]). • Immunogenicity of HuMax-AXL-ADC (anti-drug antibodies). • Anti-tumor activity measured by tumor shrinkage (based on computerized tomography [CT]-scan evaluations), as well as change in CA 125 in patients with ovarian cancer and change in prostate specific antigen (PSA) in patients with castration-resistant prostate cancer (CRPC). • Objective Response, Progression-Free Survival (PFS), Duration of Response (DoR) and Overall survival (OS). • Axl expression in the tumor biopsy.

[3] = tested on: NSCLC patients without sensitizing EGFR mutations or ALK rearrangements; test: Expansion cohort 2: response (RECIST v1.1); format: in vivo, human
Excerpt: (§3) Patients had to meet all of the following inclusion criteria before they will be allowed to participate in the trial: • 1. For the dose escalation part: Patients with relapsed or refractory cancer of the ovary, cervix, endometrium, thyroid, non-small cell lung cancer (NSCLC), or melanoma (cutaneous, mucosal, acral or uveal melanoma) who have failed available standard therapy or who are not candidates for standard therapy, and for whom, in the opinion of the investigator, experimental therapy with HuMax-AXL-ADC may be beneficial. • For the expansion part: Patients with relapsed or refractory, advanced and/or metastatic cancer who were not candidates for standard therapy, and for whom, in the opinion of the investigator, experimental therapy with HuMax-AXL-ADC could be beneficial. […] Cohorts 1 and 2 included non-small cell lung cancer patients who had failed anticancer therapy as follows: • Expansion Cohort 1 (NSCLC patients with classical sensitizing EGFR mutations and/or other EGFR resistance mutations targeted by third generation TKIs (e.g. T790M for osimertinib)): • NSCLC patients after failure of up to 4 prior treatment regimens containing systemic therapy for metastatic disease • adjuvant and maintenance treatment is considered being part of one treatment regimen. • Documented progressive disease on or after last prior treatment • Last prior treatment to enrolment to GCT1021-01 should have been: • an EGFR inhibitor (e.g. Erlotinib, Osimertinib, etc.), • or a PD-1/PD-L1 inhibitor, • or a platinum-based doublet chemotherapy. • Expansion Cohort 2 (NSCLC patients without sensitizing EGFR mutations or ALK rearrangements) • NSCLC patients after failure of up to 4 prior treatment regimens containing systemic therapy for metastatic disease. • adjuvant and maintenance treatment is considered being part of one treatment regimen. • Documented progressive disease on or after last prior treatment. • Last prior treatment to enrolment to GCT1021-01 should have been • a PD-1/PD-L1 inhibitor. • or a chemotherapy (containing platinum, and/or taxane, and/or pemetrexed, and/or gemcitabine). • For the following conditions in Expansion Cohorts 1-2, the sponsor medical officer's approval of enrolment was needed: • if documented progression had not been on measurable disease (i.e. symptomatic progression). • if last prior treatment to enrolment was a combination therapy which contained an EGFR inhibitor or a PD-1/PD-L1 inhibitor. • if last prior treatment to enrolment contain chemotherapies other than platinum, and/or taxane, and/or pemetrexed, and/or gemcitabine (only applicable for NSCLC patients without sensitizing EGFR mutations or ALK rearrangements). • 2. […] In the dose escalation part all patients were required provide a tumor tissue sample (Formalin Fixed Paraffin Embedded blocks/slides) from archival tissue or fresh biopsy collected before Cycle 1, Visit 1, preferably derived from advanced disease stage. In the expansion part all patients were required to provide a fresh biopsy (aspirates were not acceptable) taken after failure/stop of last prior treatment. Furthermore the latest available tumor tissue sample had to be collected if available. • 4. Age 18 years. • 5. Have an acceptable renal function defined as: • Glomerular filtration rate (GFR)≥40 mL/min/1.73 m^2—e.g., according to the abbreviated Modification of Diet in Renal Disease (MDRD) equation: GFR=186×(SCr^−1.154)×(age^−0.203)(where SCr, the serum creatinine level, is expressed in mg/dL; multiply it by 0.742 if the patient was female; multiply it by 1.212, if the patient was African-American^3). • Not being on dialysis. • 6. Have an acceptable liver function defined as: • Alanine aminotransferase (ALT) and aspartate aminotransferase (AST)≤3 times the ULN; if liver tumor/metastases were present, then ≤5×ULN was allowed. • Bilirubin≤1.5×ULN, except in patients diagnosed with Gilbert's syndrome, direct bilirubin≤2×ULN. • 7. […]

[4] = tested on: patients with solid tumors; test: Phase I dose escalation: DLTs, MTD, RP2D, adverse events; format: in vivo, human
Excerpt: The present study was an open label, multi-center Phase I/IIa safety trial of HuMax AXL ADC in a mixed population of patients with solid tumors known from the literature to overexpress Axl and where the use of systemic tubulin inhibitors is part of Standard of Care (SoC). The trial consisted of two parts; a dose escalation part (phase I, first-in-human (FIH)) and an expansion part (phase IIa).
The dose escalation part consists of two, staggered, arms for identification of the most optimal dosing regimen: • 1Q3W: Dosing once every 3 weeks • 3Q4W: Weekly dosing for 3 weeks followed by one treatment-free week.
The 1Q3W dose escalation evaluated HuMax-AXL-ADC at seven main dose levels: 0.3, 0.6, 1.0, 1.5, 2.0, 2.4 and 2.8 mg/kg, and 4 optional intermediate dose levels 1.25, 1.8, 2.2 and 2.6 mg/kg. Further escalation with steps of 0.4 mg/kg and de-escalation by 0.2 mg/kg was allowed, if the MTD had not been declared at a dose level up to 2.8 mg/kg.
In the 1Q3W dose escalation the patients received 1 infusion of HuMax-AXL-ADC every three weeks as according to FIG. 2.
The 3Q4W dose escalation was conducted as a standard 3 (+3) design which evaluatedHuMax-AXL-ADC at doses of (0.45), 0.6, 0.8, 1.0, 1.2 and 1.4 mg/kg. The escalation was allowed to continue to higher dose levels with increments up to 20%, if the 1.4 mg/kg was reached without significant safety concerns and it was considered safe to escalate above 1.4 mg/kg, the. The starting dose was expected to be 0.6 mg/kg (a dose level of 0.45 mg/kg could be added) and as an additional precaution, the independent Data Monitoring Committee (DMC) could recommend intermediate dose levels at any step during dose escalation.
In the 3Q4W dose escalation the patients received weekly dosing for 3 weeks followed by one treatment-free week according to FIG. 3. Patients were treated until disease progression or unacceptable toxicity was observed.
(§4) Primary Endpoints • Dose Limiting Toxicities (DLTs) • Adverse events (AEs): incidences of AEs, serious adverse events (SAEs), infusion-related AEs, grade 3 AEs, and AEs related to IMP during the trial.

[5] = tested on: EGFR mutated NSCLC patients; test: Expansion cohort 1: response (RECIST v1.1); format: in vivo, human
Excerpt: as §3, with “5.” for “5. Have an acceptable renal function defined as: • Glomerular filtration rate (GFR)≥40 mL/min/1.73 m^2—e.g., according to the abbreviated Modification of Diet in Renal Disease (MDRD) equation: GFR=186×(SCr^−1.154)×(age^−0.203)(where SCr, the serum creatinine level, is expressed in mg/dL; multiply it by 0.742 if the patient was female; multiply it by 1.212, if the patient was African-American^3). • Not being on dialysis. • 6. Have an acceptable liver function defined as: • Alanine aminotransferase (ALT) and aspartate aminotransferase (AST)≤3 times the ULN; if liver tumor/metastases were present, then ≤5×ULN was allowed. • Bilirubin≤1.5×ULN, except in patients diagnosed with Gilbert's syndrome, direct bilirubin≤2×ULN. • 7.”

[6] = tested on: non-small cell lung andenocarcinoma patients; test: Subject examples: treatment emerging events; format: in vivo, human; settings: listed as enapotamab vendotin
Excerpt: as §4

cynomolgus monkeys = test: Toxicokinetic and toxicology data in cynomolgus monkeys; format: in vivo
[7] = tested on: patients with solid tumors; test: Dose escalation: anti-tumor response (RECIST v1.1); format: in vivo, human; settings: for patients with a partial response: 1Q3W arm
Excerpt: as §2, §1
In the dose escalation, response evaluation was performed by the investigator and sponsor. In the expansion, response evaluation was performed by the investigator and sponsor as well as a group of external medical experts. Each patient was assigned one of the following categories:
Patients in response categories 1 and 2 were considered responders and patients in response categories 4 and 5 were considered as failing to respond to treatment (disease progression). Patients in response categories 1, 2 and 3 were considered to be in disease control.

[8] = 34 patients treated in expansion
[9] = 36 patients treated with 2.2 mg/kg (escalation+expansion)
[10] = of 34 patients treated in expansion
[11] = of 36 patients treated with 2.2 mg/kg (escalation+expansion)

For Enapotamab vedotin [HuMax-AXL-ADC], the “decrease in sum of diameters compared to screening” value (shortened to “decrease in sum of diameters”) ([1]; Subject 401, C2D15) was 15%, the “sum of diameters of target lesions” value ([1]; Subject 401, C2D15, screening 26 mm) was 22 mm and the “decrease in sum of diameters” value ([1]; Subject 401, C4D15) was 34.6%. The “sum of diameters of target lesions” value ([1]; Subject 401, C4D15, screening 26 mm) was 17 mm, the “decrease in sum of diameters” value ([1]; Subject 401, C6D15) was 57.6% and the “sum of diameters of target lesions” value ([1]; Subject 401, C6D15, screening 26 mm) was 11 mm. The “decrease in sum of diameters” value ([1]; Subject 403, C2D15) was 19.3%, the “sum of diameters of target lesions” value ([1]; Subject 403, C2D15, screening 88 mm) was 71 mm and the “decrease in sum of diameters” value ([1]; Subject 403, C4D15) was 35.2%. For the same substance, the “decrease in sum of diameters” value ([1]; Subject 403, C6D15) was 36.4%, the “sum of diameters of target lesions” value ([1]; Subject 403, second post-baseline scan (C4D15), screening 88 mm) was 57 mm and the “sum of diameters of target lesions” value ([1]; Subject 403, third post-baseline scan (C6D15), screening 88 mm) was 56 mm. The “decrease in sum of diameters” value ([1]; Subject 406, C2D15) was 46.8%, the “sum of diameters of target lesions” value ([1]; Subject 406, C2D15, screening 32 mm) was 17 mm and the median elimination half-life [2] was 0.9 to 2.2 days. For the same substance, the DCR [3, 8] was 47%, the “Objective Response Rate (ORR) (confirmed)” value [3, 8] was 11% and the DCR [3, 9] was 50%. The “ORR (confirmed)” value [3, 9] was 13.8%, the “patients with BoR of PD” value [3, 10] was 7 and the “patients with BoR of SD” value [3, 10] was 12. For the same substance, the “patients with BoR of confirmed PR” value [3, 10] was 4, the “patients with BoR of PD” value [3, 11] was 7 and the “patients with BoR of SD” value [3, 11] was 13. For the same substance, the “patients with BoR of confirmed PR” value [3, 11] was 5, the “Maximum Tolerated Dose (MTD)” value ([4]; 1Q3W arm) was 2.2 mg/kg and the “Recommended Phase 2 Dose (RP2D)” value ([4]; 1Q3W dosing regime) was 2.2 mg/kg. For the same substance, the “Maximum Tolerated Dose (MTD)” value ([4]; 3Q4W arm) was 1.0 mg/kg, the “number of DLTs” value ([4]; 47 patients enrolled) was 6 and the “Adverse Effects (any grade): constipation” value ([4]; % of 47 patients) was 57%. For the same substance, the “Adverse Effects (any grade): decreased appetite” value ([4]; % of 47 patients) was 43%, the “Adverse Effects (any grade): diarrhea” value ([4]; % of 47 patients) was 47% and the “Adverse Effects (any grade): fatigue” value ([4]; % of 47 patients) was 64%. For the same substance, the “Adverse Effects (any grade): nausea” value ([4]; % of 47 patients) was 57%, the “Adverse Effects (any grade): vomiting” value ([4]; % of 47 patients) was 45% and the “Disease Control Rate (DCR)” value ([5]; 18 patients treated) was 39%. The “Objective Response Rate (unconfirmed)” value ([5]; 18 patients treated) was 5.5%, the “patients with Best Overall Response (BoR) of unconfirmed PR” value ([5]; of 18 patients treated) was 1 and the “patients with BoR of PD” value ([5]; of 18 patients treated) was 6. For the same substance, the “patients with BoR of SD” value ([5]; of 18 patients treated) was 6, the “Treatment emerging events (grade, relatedness)” value ([6]; Subject 401) was “urinary tract infection (G2, unrelated); also recorded: creatinine kinase increase (fluctuating between G1 and G2, possibly related); also recorded: muscle cramps (G1, possibly related); also recorded: worsening of cough (G2, unrelated); also recorded: ALT increase and AST increase (both G1 and unrelated); also recorded: dysphonia and left leg weakness, both events reported as G1 and possibly related” and the “Treatment emerging events (grade, relatedness)” value ([6]; Subject 403) was “two episodes of nausea (both Gland possibly related); also recorded: skin and subcutaneous tissue disorder (G1, not related); also recorded: constipation (G2, related); also recorded: two episodes of anorexia (G1, first episode unrelated, second episode possibly related); also recorded: gastroesophageal reflux (G1, not related); also recorded: alopecia (G1, related); also recorded: AST increase (G1, possibly related)”. For the same substance, the “recovery of neutrophils, thrombocytes and red blood cell parameters” value (cynomolgus monkeys; cynomolgus monkey, in vivo) was “adequate recovery”, the safety profile (cynomolgus monkeys; cynomolgus monkeys) was “acceptable safety profile” and the “patients with a partial response” value ([7]; NSCLC, 2.2 mg/kg dose) was 1. The “patients with a partial response” value ([7]; all tumor types) was “Three”, the “patients with a partial response” value ([7]; ovarian, 1.5 and 2.4 mg/kg dose levels) was 2 and the antitumor activity ([7]; single agent, pre-treated patients with solid tumors) was “encouraging preliminary antitumor activity”.
